Test results as given in patent US6093730A, “Substituted isoquinoline-3-carboxamides, their preparation and their use as pharmaceuticals” (Hoechst Marion Roussel Deutschland GmbH, priority 1997, dated 2000).
pIC50: −log10 of the molar value.

What was measured:
prolyl-4-hydroxylase [1] = biological target: T1, prolyl-4-hydroxylase (Gallus gallus, UniProt P16924); assay: Inhibition of prolyl-4-hydroxylase (Table I); format: biochemical
T1 sequence (P16924 1-516): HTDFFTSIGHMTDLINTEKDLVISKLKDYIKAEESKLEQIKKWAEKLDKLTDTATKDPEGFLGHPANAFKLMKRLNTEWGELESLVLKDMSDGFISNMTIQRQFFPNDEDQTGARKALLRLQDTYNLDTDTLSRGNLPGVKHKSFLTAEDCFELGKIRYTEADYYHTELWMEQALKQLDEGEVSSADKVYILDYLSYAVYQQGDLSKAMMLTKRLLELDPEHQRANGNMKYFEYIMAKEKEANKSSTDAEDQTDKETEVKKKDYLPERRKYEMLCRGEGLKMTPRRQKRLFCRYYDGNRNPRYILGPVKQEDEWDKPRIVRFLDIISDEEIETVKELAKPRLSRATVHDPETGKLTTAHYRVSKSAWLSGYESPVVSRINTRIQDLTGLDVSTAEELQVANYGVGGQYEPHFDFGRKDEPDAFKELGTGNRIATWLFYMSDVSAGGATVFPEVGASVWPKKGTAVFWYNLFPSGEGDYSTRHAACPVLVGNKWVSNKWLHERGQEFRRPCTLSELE
T1 sequence (P09102 23-515 partner): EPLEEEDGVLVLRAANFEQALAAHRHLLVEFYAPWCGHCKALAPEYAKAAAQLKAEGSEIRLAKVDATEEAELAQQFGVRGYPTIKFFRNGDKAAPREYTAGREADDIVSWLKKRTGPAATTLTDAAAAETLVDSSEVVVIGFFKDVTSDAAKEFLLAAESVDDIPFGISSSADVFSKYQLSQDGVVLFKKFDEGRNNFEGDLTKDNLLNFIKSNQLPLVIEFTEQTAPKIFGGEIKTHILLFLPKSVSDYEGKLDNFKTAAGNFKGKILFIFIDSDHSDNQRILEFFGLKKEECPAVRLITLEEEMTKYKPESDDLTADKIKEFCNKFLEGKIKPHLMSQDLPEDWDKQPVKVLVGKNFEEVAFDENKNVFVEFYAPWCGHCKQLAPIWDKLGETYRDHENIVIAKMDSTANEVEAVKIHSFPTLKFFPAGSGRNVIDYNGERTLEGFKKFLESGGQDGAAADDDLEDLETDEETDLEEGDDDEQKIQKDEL
Description: The inhibition of this enzyme was determined as described by Kaule and Gunzler, ANAL. BIOCHEM.

hydroxyproline formation = assay: Carbon tetrachloride-induced liver fibrosis model in rats, inhibition of hydroxyproline formation; format: in vivo, rat; conditions: two weeks with CCl4
Description: The antifibrotic action was determined in the model of carbon tetrachloride-induced liver fibrosis. For this, rats were treated twice weekly with CCl4 (1 ml/kg) dissolved in olive oil. The test substance was administered daily, if appropriate even twice daily, orally or intraperitoneally dissolved in a suitable compatible solvent. The extent of the liver fibrosis was determined histologically and the proportion of collagen in the liver was analyzed by hydroxyproline determination as described in Kivirikko et al., ANAL. BIOCHEM. […] The fibrogenesis activity was determined by radioimmunological determination of collagen fragments and procollagen peptides in the serum.
The measurement of the inhibition of hydroxyproline formation by the test substances was based on this level.
Here the experimental animals were treated for two weeks only with carbon tetrachloride, then for the next two weeks with carbon tetrachloride and test substance. The test substances were administered intraperitoneally twice per day in the total amount indicated below in Table II,

liver steatosis = assay: Liver steatosis on treatment of male rats; format: in vivo, rat; conditions: up to six weeks, male rats (Fischer F344, Sprague Dawley, Wistar), 2×25 mg/kg i.p/day, in water/NaHCO3
prolyl hydroxylase [2] = conditions: Majamaa et al.; cited from earlier work
prolyl hydroxylase [3] = conditions: Tschank et al.; cited from earlier work
prolyl-4-hydroxylase [4] = biological target: T1, prolyl-4-hydroxylase; assay: Combined liver perfusion/enzyme assay (prolyl-4-hydroxylase inhibition after rat liver perfusion); format: biochemical, chicken; design: The enzyme is purified from 14 day-old chicken embryos; from tissue; host or cells: 14-day-old chicken embryos; conditions: after 120 min rat liver perfusion; 100 or 50 μg/ml added at t=0 and 60 min
Description: In order to investigate the inhibitory action of such active proinhibitors, the compounds were employed in perfusion experiments on isolated rat liver. The inhibitory action was then measured in a prolyl-4-hydroxylase assay.
Unfasted male Wistar rats of 200-300 g body weight (Hoe:WISKf(SPF71)) were anesthetized with pentobarbital (5 mg/100 g of body weight i.p.). After cannulation of the portal vein, the liver was washed with 100 ml of heparinized saline solution (5 lU/ml) of 37° C. for 3 min. The fluid left the liver by the incised vena cava. The organ was then removed, attached to the perfusion apparatus and perfused at a flow rate of 30 ml/min with 100 ml of medium for 2 hours under recirculating conditions. Krebs-Ringer buffer containing bovine erythrocytes was used for the perfusion. For this, bovine blood was mixed 1:1 with a citrate solution in the slaughterhouse immediately after removal. This mixture was centrifuged at 6000 rpm for 10 min and the supernatant was removed. This process was repeated once using saline solution and twice using Krebs-Ringer buffer. The final perfusion solution contained 33.3% of the erythrocyte sediment and 66.7% of Krebs-Ringer buffer (Schimassek, H. BIOCHEM. Z. 336 (1963) 460-467).
Perfusion apparatus (Ryoo and Tarver, H.P.S.E.B.M. 128 (1968) 760-72): The central element of the apparatus is a thermostated cylinder having a removable plate for the storage of the organ. The outlet tube is extended and its lower end is attached to a peristaltic pump. Before the return of the perfusate into the organ bath, it is passed through a glass spiral, which serves as a heat exchanger, which keeps the temperature constant at 37° C. At the bottom of the cylinder, the perfusate is aerated with 70 ml of a CO2 /O2 mixture (5:95%) per minute. In order to avoid foam formation, 14 μl of 0.1% strength Genapol® PF-10 solution are added per ml of perfusion solution. Samples for analysis are removed from the perfusate at a position before entry into the perfused organ.
The test substances were added to the perfusion solution at time t=0 and 60 min in concentrations of 100 or 50 μg/ml in each case. After a perfusion time of 120 min, a sample of the perfusion solution was removed for analysis.
The inhibitory activity of the metabolites which are formed in the liver during the two-hour perfusion was determined in an in vitro prolyl-4-hydroxylase assay. The enzyme is purified from 14 day-old chicken embryos as described in the literature (Tuderman et al., EUR.J.BIOCHEM. 52 (1975) 9-16; Kedersha and Berg, COLLAGEN REL. RES. 1 (1981) 345-53). The enzyme test is carried out according to Kaule and Gunzler, ANAL. BIOCHEM. 184 (1990) 291-97). Dose-response curves were obtained by means of dilution series, starting from the undiluted perfusion solution.

collagen biosynthesis = conditions: Franklin et al.; cited from earlier work
[5] = 20 mg/kg (total), intraperitoneal twice per day
[6] = 40 mg/kg (total), intraperitoneal twice per day

## O=C(O)CNC(=O)c1nc(Cl)c2ccccc2c1O [Example 9, N-((1-Chloro-4-hydroxyisoquinolin-3-yl)carbonyl)glycine]
prolyl-4-hydroxylase [1]
  pIC50: 5.64
Hydroxyproline formation; [5]
  Change in hydroxyproline formation: -67%
Hydroxyproline formation; [6]
  Change in hydroxyproline formation: -65%
Hydroxyproline formation; 100 mg/kg (total), intraperitoneal twice per day
  Change in hydroxyproline formation: -58%
Hydroxyproline formation; 100 mg/kg, oral administration
  Change in hydroxyproline formation: -71%
Liver steatosis
  liver steatosis: It was not possible to demonstrate any liver steatosis

## CC(C)Oc1ccc2c(Cl)nc(C(=O)NCC(=O)O)c(O)c2c1 [Example 2, N-((1-Chloro-4-hydroxy-6-(2-propyloxy)isoquinolin-3-yl)carbonyl)glycine]
prolyl-4-hydroxylase [1]; Table I, read-out: IC50
  pIC50: 5.72

## COc1cccc2c(O)c(C(=O)NCC(=O)O)ncc12 [Example 12, N-((4-Hydroxy-8-methoxyisoquinolin-3-yl)carbonyl)glycine]
prolyl-4-hydroxylase [1]; Table I, read-out: IC50
  pIC50: 6.19

## O=C(O)c1ccnc(C(=O)O)c1 [pyridine-2,4-dicarboxylic acid]
Prolyl hydroxylase [2]
  inhibition of prolyl hydroxylase: effectively inhibited
Prolyl hydroxylase [3]
  activity as inhibitors in cell culture: only active as inhibitors in very high concentrations

## O=C(O)CNC(=O)c1ncc2c(Cl)cccc2c1O [Example 11, N-((8-Chloro-4-hydroxyisoquinolin-3-yl)carbonyl)glycine]
prolyl-4-hydroxylase [1]; Table I, read-out: IC50
  pIC50: 6.18

## CC(C)Oc1ccc2c(O)c(C(=O)NCC(=O)O)ncc2c1 [Example 15, N-((4-Hydroxy-7-(2-propyloxy)isoquinolin-3-yl)carbonyl)glycine]
prolyl-4-hydroxylase [1]; Table I, read-out: IC50
  pIC50: 6.18

## CC(C)Oc1ccc2c(O)c(C(=O)NCCO)nc(Cl)c2c1 [Example 19, 1-Chloro-4-hydroxy-7-(2-propyloxy)isoquinoline-3-carboxylic acid N-(2-hydroxyethyl)amide]
Hydroxyproline formation; [6]
  Change in hydroxyproline formation: -39%
prolyl-4-hydroxylase [4]
  pIC50: 4.98

## CCCCOc1ccc2c(O)c(C(=O)NCCO)nc(Cl)c2c1 [Example 23, 7-(1-Butyloxy)-1-chloro-4-hydroxyisoquinoline-3-carboxylic acid N-(2-hydroxyethyl)amide]
prolyl-4-hydroxylase [4]
  pIC50: 4.66

## CCCCOc1ccc2c(O)c(C(=O)NCC(=O)O)ncc2c1 [Example 13, N-((7-(1-Butyloxy)-4-hydroxyisoquinolin-3-yl)carbonyl)glycine]
prolyl-4-hydroxylase [1]; Table I, read-out: IC50
  pIC50: 5.03

## O=C(O)CNC(=O)c1ncc2ccccc2c1O [N-((4-Hydroxyisoquinolin-3-yl)carbonyl)glycine]
Collagen biosynthesis
  in-vivo activity on collagen biosynthesis: poor

## CC(C)Oc1ccc2c(Cl)nc(C(=O)NCCO)c(O)c2c1 [Example 20, 1-Chloro-4-hydroxy-6-(2-propyloxy)isoquinoline-3-carboxylic acid N-(2-hydroxyethyl)amide]
prolyl-4-hydroxylase [4]
  pIC50: 4.78

## O=C(O)c1ccc(C(=O)O)nc1 [pyridine-2,5-dicarboxylic acid]
Prolyl hydroxylase [2]
  inhibition of prolyl hydroxylase: effectively inhibited
Prolyl hydroxylase [3]
  activity as inhibitors in cell culture: only active as inhibitors in very high concentrations

## CCCCOc1ccc2c(Cl)nc(C(=O)NCC(=O)O)c(O)c2c1 [Example 6, N-(-6-(1-Butyloxy-1-chloro-4-hydroxyisoquinolin-3-yl)carbonyl)glycine]
prolyl-4-hydroxylase [1]; Table I, read-out: IC50
  pIC50: 5.69

## O=C(O)CNC(=O)c1nc(Cl)c2cc(Cl)c(Cl)cc2c1O [Example 10, N-((1,6,7-Trichloro-4-hydroxyisoquinolin-3-yl)carbonyl)glycine]
prolyl-4-hydroxylase [1]; Table I, read-out: IC50
  pIC50: 5.44

## O=C(O)CNC(=O)c1nc(Cl)c2cc(OCc3ccccc3)ccc2c1O [Example 8, N-((7-Benzyloxy-1-chloro-4-hydroxyisoquinolin-3-yl)carbonyl)glycine]
prolyl-4-hydroxylase [1]; Table I, read-out: IC50
  pIC50: 6.21

## CCCCOc1ccc2cnc(C(=O)NCC(=O)O)c(O)c2c1 [Example 14, N-((6-(1-Butyloxy)-4-hydroxyisoquinolin-3-yl)carbonyl)glycine]
prolyl-4-hydroxylase [1]; Table I, read-out: IC50
  pIC50: 6.46

## CC(C)Oc1ccc2c(O)c(C(=O)NCC(=O)O)nc(Cl)c2c1 [Example 1, N-((1-Chloro-4-hydroxy-7-(2-propyloxy)isoquinolin-3-yl)carbonyl)glycine]
prolyl-4-hydroxylase [1]; Table I, read-out: IC50
  pIC50: 6.92
Hydroxyproline formation; [5]
  Change in hydroxyproline formation: -55%

## COc1ccc2c(Cl)nc(C(=O)NCC(=O)O)c(O)c2c1 [Example 4, N-((1-Chloro-4-hydroxy-6-methoxyisoquinolin-3-yl)carbonyl)glycine]
prolyl-4-hydroxylase [1]; Table I, read-out: IC50
  pIC50: 6.24

## CCCCOc1ccc2c(O)c(C(=O)NCC(=O)O)nc(Cl)c2c1 [Example 5, N-((7-(1-Butyloxy)-1-chloro-4-hydroxyisoquinolin-3-yl)carbonyl)glycine]
prolyl-4-hydroxylase [1]; Table I, read-out: IC50
  pIC50: 6.15

## COc1ccc2c(Cl)nc(C(=O)NCCO)c(O)c2c1 [Example 22, 1-Chloro-4-hydroxy-6-methoxyisoquinoline-3-carboxylic acid N-(2-hydroxyethyl)amide]
prolyl-4-hydroxylase [4]
  pIC50: 5.19

## COc1ccc2c(O)c(C(=O)NCC(=O)O)nc(Cl)c2c1 [Example 3, N-((1-Chloro-4-hydroxy-7-methoxyisoquinolin-3-yl)carbonyl)glycine]
prolyl-4-hydroxylase [1]; Table I, read-out: IC50
  pIC50: 6.10

## COc1ccc2c(O)c(C(=O)NCCO)nc(Cl)c2c1 [Example 21, 1-Chloro-4-hydroxy-7-methoxyisoquinoline-3-carboxylic acid N-(2-hydroxyethyl)amide]
prolyl-4-hydroxylase [4]
  pIC50: 5.12

## O=C(O)CNC(=O)c1nc(Cl)c2ccc(OCc3ccccc3)cc2c1O [Example 7, N-((6-Benzyloxy-1-chloro-4-hydroxyisoquinolin-3-yl)carbonyl)glycine]
prolyl-4-hydroxylase [1]; Table I, read-out: IC50
  pIC50: 5.87
